Among the data in patent publication US11713307B2, “Heteroaryl-biphenyl amides for the treatment of PD-L1 diseases” (CHEMOCENTRYX, INC., priority 2019, dated 2023) are IC50 values, retold here.

Some results are limits rather than exact numbers.

Chain of human PD-L1 (Q9NZQ7 19-239): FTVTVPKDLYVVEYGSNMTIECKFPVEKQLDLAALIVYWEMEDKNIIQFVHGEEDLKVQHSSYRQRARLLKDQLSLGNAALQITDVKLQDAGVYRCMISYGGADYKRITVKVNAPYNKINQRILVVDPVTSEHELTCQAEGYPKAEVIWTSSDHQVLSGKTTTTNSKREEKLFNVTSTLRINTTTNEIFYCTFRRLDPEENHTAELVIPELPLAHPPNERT

The test addresses human PD-L1 (Homo sapiens (Human), UniProt Q9NZQ7). The test can be described thus: Enzyme-Linked Immunosorbent Assay—ELISA (PD-1/PD-L1 binding). Particulars: plates coated with human PD-L1; Human PD-1 and biotin added; absorbance at 450 nm. The procedure: 96 Well plates were coated with 1 μg/mL of human PD-L1 (obtained from R&D) in PBS overnight at 4° C. The wells were then blocked with 2% BSA in PBS (W/V) with 0.05% TWEEN-20 for 1 hour at 37° C. The plates were washed 3 times with PBS/0.05% TWEEN-20 and the compounds were serial diluted (1:5) in dilution medium and added to the ELISA plates. Human PD-1 and biotin 0.3 μg/mL (ACRO Biosystems) were added and incubated for 1 hour at 37° C. then washed 3 times with PBS/0.05% TWEEN-20. A second block was performed with 2% BSA in PBS (W/V)/0.05% TWEEN-20 for 10 min at 37° C. and the plates were washed 3 times with PBS/0.05% TWEEN-20. Streptavidin-HRP was added for 1 hour at 37° C. then the plates were washed 3 times with PBS/0.05% TWEEN-20. TMB substrate was added and reacted for 20 min at 37° C. A stop solution (2 N aqueous H2SO4) was added. The absorbance was read at 450 nm using a micro-plate spectrophotometer. The results are shown in Table 1: IC50 values are provided as follows: from 1000 to 10,000 nM (+); from 10 up to 1000 nM (++); less than 10 nM (+++).
For orientation: An ELISA detects its analyte on a solid surface through an enzyme-linked reagent.
With `COc1nc(-c2cccc(-c3cccc(NC(=O)c4cn(C)c(=O)n(C)c4=O)c3Cl)c2Cl)ncc1CNC[C@@H]1CCC(=O)N1` [Compound 1.081], the 50% inhibitory concentration (IC50) is less than 10 nM.

In the case of `COc1nc(-c2cccc(-c3cccc(NC(=O)c4cn(C)c(=O)n(C)c4=O)c3C)c2Cl)ccc1CN[C@H]1CCOC[C@H]1O` [Compound 1.042], the IC50 is less than 10 nM.

In the case of `CCc1nc(-c2cccc(-c3cccc(NC(=O)c4cn(C)c(=O)n(C)c4=O)c3Cl)c2Cl)ccc1CN1CC(C(=O)O)C1` [Compound 1.071], the IC50 was less than 10 nM.

In turn, `COc1cc(-c2cccc(-c3cccc(NC(=O)c4cn(C)c(=O)n(C)c4=O)c3Cl)c2Cl)ncc1CN1CC(O)C1` [Compound 1.080] registered a concentration for half-maximal inhibition (IC50) of 10 to 1000 nM.

The molecule `COc1nc(-c2cccc(-c3cccc(NC(=O)c4cn(C)c(=O)n(C)c4=O)c3Cl)c2Cl)ccc1CN(C)C[C@@H]1CCC(=O)N1` [Compound 1.058] displayed an IC50 of 10 to 1000 nM.

With `COc1nc(-c2cccc(-c3cccc(NC(=O)c4cn(C)c(=O)n(C)c4=O)c3Cl)c2Cl)cnc1CN[C@@H]1CCC(=O)NC1` [Compound 1.001], the IC50 was less than 10 nM.

Turning to `COc1nc(-c2cccc(-c3cccc(NC(=O)c4cn(C)c(=O)n(C)c4=O)c3C)c2Cl)ccc1CNC[C@@H](C)O` [Compound 1.028], the 50% inhibitory concentration (IC50) was less than 10 nM.

For the molecule `COc1nc(-c2cccc(-c3cccc(NC(=O)c4cn(C)c(=O)n(C)c4=O)c3C)c2Cl)cnc1CN[C@@H]1CCOC[C@@H]1O` [Compound 1.078], the 50% inhibitory concentration (IC50) is less than 10 nM.

Take `COc1nc(-c2cccc(-c3cccc(NC(=O)c4cn(C)c(=O)n(C)c4=O)c3Cl)c2Cl)ncc1CN[C@@H]1CCOC[C@@H]1O` [Compound 1.089]: the IC50 is less than 10 nM.

With `COc1nc(-c2cccc(-c3cccc(NC(=O)c4cn(C)c(=O)n(C)c4=O)c3C)c2Cl)ccc1CNC[C@@H]1CCC(=O)N1` [Compound 1.006], the half-maximal inhibitory concentration (IC50) was less than 10 nM.

`COc1nc(-c2cccc(-c3cccc(NC(=O)c4cn(C)c(=O)n(C)c4=O)c3C)c2Cl)ccc1CNC[C@@H]1CC(C)(C)C(=O)N1` [Compound 1.016] gave a concentration for half-maximal inhibition (IC50) of less than 10 nM.

As for `CCc1nc(-c2cccc(-c3cccc(NC(=O)c4cn(C)c(=O)n(C)c4=O)c3Cl)c2Cl)ccc1CN1CC(O)C1` [Compound 1.072], the half-maximal inhibitory concentration (IC50) fell in the range of 10 to 1000 nM.

Molecule `COc1nc(-c2cccc(-c3cccc(NC(=O)c4cn(C)c(=O)n(C)c4=O)c3C)c2Cl)ccc1CN[C@H](C)CO` [Compound 1.020] registered an IC50 of less than 10 nM.

`COc1nc(-c2cccc(-c3cccc(NC(=O)c4cn(C)c(=O)n(C)c4=O)c3C)c2Cl)ccc1CNCCO` [Compound 1.056]: the half-inhibitory concentration (IC50) was less than 10 nM.

`COc1nc(-c2cccc(-c3cccc(NC(=O)c4cn(C)c(=O)n(C)c4=O)c3C)c2C)ccc1CNC[C@@H]1CCC(=O)N1` [Compound 1.062] returned an IC50 of less than 10 nM.

On to `Cc1c(NC(=O)c2cn(C)c(=O)n(C)c2=O)cccc1-c1cccc(-c2ccc(CNC[C@@H]3CCC(=O)N3)c(C(F)(F)F)n2)c1Cl` [Compound 1.045], for which the IC50 was less than 10 nM.

Turning to `COc1nc(-c2cccc(-c3cccc(NC(=O)c4cn(C)c(=O)n(C)c4=O)c3C)c2Cl)ccc1CN[C@@H](C)CO` [Compound 1.021], the IC50 was less than 10 nM.

Turning to `COc1nc(-c2cccc(-c3cccc(NC(=O)c4cn(C)c(=O)n(C)c4=O)c3)c2Cl)ccc1CNC[C@@H]1CCC(=O)N1` [Compound 1.061], the IC50 is less than 10 nM.

Molecule `COc1nc(-c2cccc(-c3cccc(NC(=O)c4cn(C)c(=O)n(C)c4=O)c3Cl)c2Cl)cnc1CNC[C@@H]1CCC(=O)N1` [Compound 1.003] had a half-maximal inhibitory concentration (IC50) of less than 10 nM.

`COc1nc(-c2cccc(-c3cccc(NC(=O)c4cn(C)c(=O)n(C)c4=O)c3C)c2Cl)ccc1CNC[C@@H](O)CO` [Compound 1.044] yielded a half-maximal inhibitory concentration (IC50) of less than 10 nM.

`COc1nc(-c2cccc(-c3cccc(NC(=O)c4cn(C)c(=O)n(C)c4=O)c3Cl)c2Cl)cnc1CN1CCCC[C@@H]1C(=O)O` [Compound 1.094] returned a 50% inhibitory concentration (IC50) of less than 10 nM.

For the molecule `COc1nc(-c2cccc(-c3cccc(NC(=O)c4cn(C)c(=O)n(C)c4=O)c3C)c2Cl)ccc1CN[C@@H]1COC[C@@H]1O` [Compound 1.012], the concentration for half-maximal inhibition (IC50) is less than 10 nM.

On to `COc1nc(-c2cccc(-c3cccc(NC(=O)c4cn(C)c(=O)n(C)c4=O)c3C)c2Cl)ccc1CN[C@@H]1CCOC[C@@H]1O` [Compound 1.008], for which the IC50 is less than 10 nM.

Take `COc1nc(-c2cccc(-c3cccc(NC(=O)c4cn(C)c(=O)n(C)c4=O)c3C)c2C#N)ccc1CN[C@@H]1CCOC[C@@H]1O` [Compound 1.026]: the IC50 is less than 10 nM.

The molecule `COc1nc(-c2cccc(-c3cccc(NC(=O)c4cn(C)c(=O)n(C)c4=O)c3C)c2Cl)ccc1CN1CC2(CCC(=O)N2)C1` [Compound 1.096] returned a 50% inhibitory concentration (IC50) of less than 10 nM.

For the molecule `COc1nc(-c2cccc(-c3cccc(NC(=O)c4cn(C)c(=O)n(C)c4=O)c3C)c2Cl)ccc1CNCC(C)(C)O` [Compound 1.055], the IC50 was less than 10 nM.

As to `COc1nc(-c2cccc(-c3cccc(NC(=O)c4cn(C)c(=O)n(C)c4=O)c3C)c2Cl)ccc1CNCCC(C)(C)O` [Compound 1.023], the IC50 is less than 10 nM.

Turning to `COc1nc(-c2cccc(-c3cccc(NC(=O)c4cn(C)c(=O)n(C)c4=O)c3Cl)c2Cl)ccc1CN1CC(O)C1` [Compound 1.090], the IC50 was less than 10 nM.

For `COc1nc(-c2cccc(-c3cccc(NC(=O)c4cn(C)c(=O)n(C)c4=O)c3C)c2Cl)ccc1CNCC1(O)CC1` [Compound 1.022], the IC50 is 1000 to 10000 nM.

With `COc1nc(-c2cccc(-c3cccc(NC(=O)c4cn(C)c(=O)n(C)c4=O)c3Cl)c2Cl)ccc1CN1CC(NS(C)(=O)=O)C1` [Compound 1.073], the IC50 is less than 10 nM.

With `COc1nc(-c2cccc(-c3cccc(NC(=O)c4cn(C)c(=O)n(C)c4=O)c3C)c2Cl)ccc1CN1CC[C@@](C)(O)C1` [Compound 1.048], the concentration for half-maximal inhibition (IC50) was less than 10 nM.

`COc1nc(-c2cccc(-c3cccc(NC(=O)c4cn(C)c(=O)n(C)c4=O)c3C)c2Cl)ccc1CNCC(=O)O` [Compound 1.051] showed an IC50 of less than 10 nM.

Molecule `COc1nc(-c2cccc(-c3cccc(NC(=O)c4cn(C)c(=O)n(C)c4=O)c3C)c2Cl)ccc1CN[C@H]1CCOC[C@@H]1O` [Compound 1.013] gave an IC50 of less than 10 nM.

In the case of `COc1nc(-c2cccc(-c3cccc(NC(=O)c4cn(C)c(=O)n(C)c4=O)c3C)c2Cl)ccc1CN[C@@H]1CCOC[C@H]1O` [Compound 1.014], the IC50 was less than 10 nM.

With `CCc1nc(-c2cccc(-c3cccc(NC(=O)c4cn(C)c(=O)n(C)c4=O)c3Cl)c2Cl)cnc1CNC[C@@H]1CCC(=O)N1` [Compound 1.077], the 50% inhibitory concentration (IC50) is less than 10 nM.

`COc1nc(-c2cccc(-c3cccc(NC(=O)c4cn(C)c(=O)n(C)c4=O)c3C)c2Cl)ccc1CNC[C@@H]1CCC(=O)N1C` [Compound 1.043]: the concentration for half-maximal inhibition (IC50) is less than 10 nM.

In turn, `COc1nc(-c2cccc(-c3cccc(NC(=O)c4cn(C)c(=O)n(C)c4=O)c3Cl)c2Cl)cnc1CN1CC(O)C1` [Compound 1.098] had an IC50 of less than 10 nM.

In the case of `COc1nc(-c2cccc(-c3cccc(NC(=O)c4cn(C)c(=O)n(C)c4=O)c3Cl)c2Cl)cnc1CN1CC2(CCNC2=O)C1` [Compound 1.102], the IC50 was less than 10 nM.

As to `COc1nc(-c2cccc(-c3cccc(NC(=O)c4cccn(C)c4=O)c3Cl)c2Cl)ccc1CNC[C@@H]1CCC(=O)N1` [Compound 1.069], the half-maximal inhibitory concentration (IC50) was less than 10 nM.

As for `CCc1nc(-c2cccc(-c3cccc(NC(=O)c4cn(C)c(=O)n(C)c4=O)c3C)c2Cl)ccc1CNC[C@@H]1CCC(=O)N1` [Compound 1.054], the IC50 was less than 10 nM.

`COc1nc(-c2cccc(-c3cccc(NC(=O)c4cn(C)c(=O)n(C)c4=O)c3C)c2Cl)ccc1CN1CC(O)C1` [Compound 1.095]: the IC50 is less than 10 nM.

In turn, `COc1nc(-c2cccc(-c3cccc(NC(=O)c4nn(C)c(=O)n(C)c4=O)c3Cl)c2Cl)ccc1CNC[C@@H]1CCC(=O)N1` [Compound 1.064] returned an IC50 of less than 10 nM.

Molecule `COc1nc(-c2cccc(-c3cccc(NC(=O)c4cn(C)c(=O)n(C)c4=O)c3C)c2Cl)ccc1CNC(C)C` [Compound 1.037] had an IC50 of less than 10 nM.

On to `COc1nc(-c2cccc(-c3cccc(NC(=O)c4cn(C)c(=O)n(C)c4=O)c3C)c2Cl)ccc1CN1CC2(CCNC2=O)C1` [Compound 1.092], for which the 50% inhibitory concentration (IC50) is less than 10 nM.

`COc1nc(-c2cccc(-c3cccc(NC(=O)c4cn(C)c(=O)n(C)c4=O)c3Cl)c2Cl)ccc1CNCCO` [Compound 1.039] displayed an IC50 of less than 10 nM.

As to `COc1nc(-c2cccc(-c3cccc(NC(=O)c4cn(C)c(=O)n(C)c4=O)c3Cl)c2Cl)ccc1CNCC(C)(C)C(N)=O` [Compound 1.057], the IC50 is less than 10 nM.

The molecule `COc1cc(-c2cccc(-c3cccc(NC(=O)c4cn(C)c(=O)n(C)c4=O)c3C)c2C)cnc1CNCCO` [Compound 1.010] gave an IC50 of less than 10 nM.

Regarding `COc1nc(-c2cccc(-c3cccc(NC(=O)c4cn(C)c(=O)n(C)c4=O)c3Cl)c2Cl)cnc1CN[C@@H]1CCOC[C@@H]1O` [Compound 1.005], the IC50 was less than 10 nM.

`COc1nc(-c2cccc(-c3cccc(NC(=O)c4cn(C)c(=O)n(C)c4=O)c3C)c2Cl)ccc1CNCC1(C)CCC(=O)N1` (stereo not drawn) [Compound 1.015] displayed a half-maximal inhibitory concentration (IC50) of less than 10 nM.

Consider `COc1cc(-c2cccc(-c3cccc(NC(=O)c4cn(C)c(=O)n(C)c4=O)c3Cl)c2Cl)ncc1CNC[C@@H]1CCC(=O)N1` [Compound 1.093], for which the IC50 is less than 10 nM.

In turn, `COc1nc(-c2cccc(-c3cccc(NC(=O)c4cn(C)c(=O)n(C)c4=O)c3C)c2Cl)cnc1CNC[C@@H]1CCC(=O)N1` [Compound 1.079] showed an IC50 of less than 10 nM.

As a reminder, the IC50 is the concentration needed to halve the response being measured.
